Reference: patent US20210236449A1, “USE OF CHLOROGENIC ACID IN PREPARING DRUG FOR PREVENTING OR BLOCKING BRAIN AND/OR BONE METASTASES OF LUNG CANCER” (SICHUAN JIUZHANG BIOLOGICAL SCIENCE AND TECHNOLOGY CO., LTD, priority 2018, published 2021)
Marks after values point to notes of the source that are not given here.

Test system: EGFP-LA795 cells
Test: Inhibitory effect of chlorogenic acid on metastasis in LA795 lung cancer mice
Assay type: in vivo, T739 mice
Details: for Abdominal metastasis / Axial bone metastasis / Bloody ascites / Brain metastasis / Limb bone metastasis / Local lymph node metastasis: once a day for 20 days, mice with finding/n = 10
Description: (1) Animals: T739 mice, half male and half female, weighing 18-22 g, are provided by the Experimental Animal Center of Sichuan University.
(2) Lung cancer cell lines: LA795, provided by Wuhan Procell Life Technology Co., Ltd.; Fetal bovine serum, provided by Hangzhou Sijiqing Bioengineering Materials Co., Ltd.; plasmid EGFP-C1, provided by Clontech; Liposome transfection reagent Lipofectamin 2000, provided by Invitrogen.
LA795 cells were inoculated in a 6-well culture plate at 1×10^7 cells/mL, using DMEM complete medium containing 10% fetal bovine serum, and cultured in a 37° C., 5% CO2 incubator. When the cells were about 70% fused, liposome transfection reagent lipid Lipofectamin2000 was used and LA795 cells were transfected into plasmid EGFP-C1. 48 h after transfection, cells were passed and screened by G 418, then anti-G418 fluorescent positive clones appeared after about 4 weeks. Clones were observed under fluorescent inverted microscope, and one resistant fluorescent cell clone was randomly picked and transferred to 96-well plate for culture. After stepwise expansion, cells were routinely cultured and passaged. 400 μg/ml G418 was used to maintain screening and obtain expanded EGFP-LA795 cells. When EGFP-LA795 cells are 80%-90% fused in the logarithmic growth phase, they are digested with 0.25% trypsin, then centrifuged, and the cells are resuspended in DMEM to prepare a cell suspension for seeding (cell concentration 1×10^7 cells/mL). EGFP-LA795 cells grown on the wall were trypsinized to prepare a single cell suspension, and then diluted appropriately. The cell suspension was mixed with 0.4% trypan blue solution and counted under the microscope. The survival rate of EGFP-LA795 cells was >90%, and the positive clones were picked out under an inverted fluorescence microscope, followed by culture and amplification, to obtain LA795 cells with green fluorescence.
0.2 ml of EGFP-LA795 cell suspension at 1.0×10^7 cells/ml was inoculated into the armpit of mice, and then the mice were randomly divided into groups, 10 mice for each group, including the high-dose chlorogenic acid group, the middle-dose chlorogenic acid group, and the low-dose chlorogenic acid group and the model control group. Chlorogenic acid was administered by intraperitoneal injection, 40 mg/kg for the high-dose group, 20 mg/kg for the middle-dose group, 10 mg/kg for the low-dose group, and the administration volume was 1.0 ml; the model control group was given the same volume of normal saline by intraperitoneal injection, once a day for 20 days. In vivo imaging observations were performed on days 0, 10, and 20, respectively. After the test, the mice were sacrificed by cervical dislocation, and peripheral lymph nodes, axial bones, and long bones of the limbs were taken to observe and count metastases.
10% chloral hydrate was intraperitoneally injected at 4 ml/kg for anesthetization, and mice were put on the black rubber pad prepared for the in vivo imager. The irradiation conditions were GFP, the emission wavelength was 520 nm, the excitation wavelength was 480 nm, and the exposure time was 5 ms. The volume changes and metastasis of the tumor were observed.
Surrounding lymph nodes were taken out, and 8 μm conventional and frozen sections were obtained, and routinely stained with hematoxylin-eosin (HE) every other one, to observe the tumor metastasis under fluorescence microscope and light microscope.
Axial bones (such as ribs, spine, ilium, scapula) and long bones of the limbs of mice were chosen, cut into 0.5 cm×0.3 cm×0.3 cm bone pieces, and fixed with frozen 4% paraformaldehyde solution at 5° C. for 12 h-24 h; the bones were rinsed with phosphate buffer and decalcified with EDTA until the bone slices were completely decalcified. […]

[1] = high dose group, 40 mg/kg intraperitoneal injection
[2] = low dose group, 10 mg/kg intraperitoneal injection
[3] = medium dose group, 20 mg/kg intraperitoneal injection

## O=C(/C=C/c1ccc(O)c(O)c1)O[C@@H]1C[C@](O)(C(=O)O)C[C@@H](O)[C@H]1O [Chlorogenic acid, chlorogenic acid]
20 mg/kg medium-dose group
  metastasis of LA795 lung cancer cells in mice: No metastasis was found
[1]
  Abdominal metastasis: 1/10*
  Axial bone metastasis: 0/10*
  Bloody ascites: 0/10*
  Brain metastasis: 0/10*
  Limb bone metastasis: 0/10*
  Local lymph node metastasis: 1/10*
[2]
  Abdominal metastasis: 2/10*
  Axial bone metastasis: 0/10*
  Bloody ascites: 0/10*
  Brain metastasis: 0/10*
  Limb bone metastasis: 0/10*
  Local lymph node metastasis: 1/10*
low, medium and high dose groups versus model control group
  number of metastatic foci in mice: significantly reduced
[3]
  Abdominal metastasis: 0/10*
  Axial bone metastasis: 0/10*
  Bloody ascites: 0/10*
  Brain metastasis: 0/10*
  Limb bone metastasis: 0/10*
  Local lymph node metastasis: 0/10*
